{
  "source": "patent US20100135905A1",
  "about": "“ASSESSMENT OF CANCER SUSCEPTIBILITY TO MOLECULAR TARGETED THERAPY BY USE OF RECOMBINANT PEPTIDES” (priority 2004, published 2010)",
  "key": {"D54 tumors": {"test_system": "D54 tumors", "experiment": "Tumor growth delay with SU11248, D54 tumors", "assay_type": "in vivo, nude mice", "details": "SU11248 alone", "procedure": "(§1) D54 and LLC tumors were implanted into both hind limbs of nude mice as described in Example 2. Tumors were grown over the course of seven to 10 days.\n(§2) In comparison, LLC tumors responded to SU11248 alone or in combination with radiation."}, "LLC tumors [1]": {"test_system": "LLC tumors", "experiment": "Tumor growth delay, LLC hind limb tumors", "assay_type": "in vivo, mice", "source_text": "As disclosed herein, the induction of apoptosis correlated with the biological response in tumor blood vessels and tumor growth delay. […] Both the inhibitor and radiation were discontinued after day 8. […] Time to doubling of LLC tumor size was 5, 6, 8, and 16 days for each group, respectively."}, "LLC tumors [2]": {"test_system": "LLC tumors", "experiment": "Tumor growth delay with SU11248, LLC tumors", "assay_type": "in vivo, nude mice", "details": "drug alone", "procedure": "as §1, §2"}, "HUVECs [3]": {"test_system": "HUVECs", "experiment": "Apoptotic nuclei in HUVECs, H&E staining", "assay_type": "cell-based, human", "details": "24 hours", "procedure": "After a 24-hour incubation period, cells were fixed and stained with Hematoxylin and Eosin (H&E). Five high-powered fields (400×) were observed and counted for each experimental group."}, "tumor vasculature": {"test_system": "tumor vasculature", "experiment": "Tumor vascular length density, intravital tumor vascular window", "assay_type": "in vivo, mice", "procedure": "Tumor vascular linear density was measured by use of intravital tumor vascular window. […] Five mice were treated in each of the treatment groups, and the vascular length density after treatment was quantified."}, "tumor endothelial cells": {"test_system": "tumor endothelial cells", "experiment": "TUNEL staining of treated tumor sections", "assay_type": "in vivo"}, "[4]": {"test_system": "A431, Colo205, H460, C6 and SF763T tumors", "details": "regression, growth arrest or growth delay of xenografts; cited from earlier work"}, "HUVECs [5]": {"test_system": "HUVECs", "experiment": "Clonogenic survival of HUVECs", "assay_type": "cell-based, human", "details": "SU11248 prior to irradiation compared to radiation alone (p<0.05)"}, "LLC tumors [6]": {"test_system": "LLC tumors", "experiment": "131I-labeled peptide binding in hind limb LLC tumors, well counts", "assay_type": "in vivo, mice", "procedure": "Recombinant peptide and ligand binding to the α2bβ3 integrin is dose dependent, with a threshold dose of 6 Gy and maximal binding at 10 Gy. This is the dose range for induction of apoptosis within tumor endothelium (Garcia-Barros & Kolesnick, 2003). […] To determine whether recombinant peptides bind within tumors following this combined therapy, the recombinant peptide […] (SEQ ID NO: 2) was employed. […] Tumors were resected and counts per minute (CPM) were measured by well counts."}, "LLC tumors [7]": {"test_system": "LLC tumors", "experiment": "In vivo panning of T7 phage peptide library: phage recovered from irradiated LLC tumors", "design": "species or system mice"}, "α2bβ3 receptor": {"molecular_target": "T1, α2bβ3 receptor (Mus musculus, UniProt O54890+Q9QUM0)", "T1 construct": "from tissue; host or cells: irradiated tumours (tumour vasculature / blood components) in living mice", "T1 sequence (Q9QUM0 32-1033)": "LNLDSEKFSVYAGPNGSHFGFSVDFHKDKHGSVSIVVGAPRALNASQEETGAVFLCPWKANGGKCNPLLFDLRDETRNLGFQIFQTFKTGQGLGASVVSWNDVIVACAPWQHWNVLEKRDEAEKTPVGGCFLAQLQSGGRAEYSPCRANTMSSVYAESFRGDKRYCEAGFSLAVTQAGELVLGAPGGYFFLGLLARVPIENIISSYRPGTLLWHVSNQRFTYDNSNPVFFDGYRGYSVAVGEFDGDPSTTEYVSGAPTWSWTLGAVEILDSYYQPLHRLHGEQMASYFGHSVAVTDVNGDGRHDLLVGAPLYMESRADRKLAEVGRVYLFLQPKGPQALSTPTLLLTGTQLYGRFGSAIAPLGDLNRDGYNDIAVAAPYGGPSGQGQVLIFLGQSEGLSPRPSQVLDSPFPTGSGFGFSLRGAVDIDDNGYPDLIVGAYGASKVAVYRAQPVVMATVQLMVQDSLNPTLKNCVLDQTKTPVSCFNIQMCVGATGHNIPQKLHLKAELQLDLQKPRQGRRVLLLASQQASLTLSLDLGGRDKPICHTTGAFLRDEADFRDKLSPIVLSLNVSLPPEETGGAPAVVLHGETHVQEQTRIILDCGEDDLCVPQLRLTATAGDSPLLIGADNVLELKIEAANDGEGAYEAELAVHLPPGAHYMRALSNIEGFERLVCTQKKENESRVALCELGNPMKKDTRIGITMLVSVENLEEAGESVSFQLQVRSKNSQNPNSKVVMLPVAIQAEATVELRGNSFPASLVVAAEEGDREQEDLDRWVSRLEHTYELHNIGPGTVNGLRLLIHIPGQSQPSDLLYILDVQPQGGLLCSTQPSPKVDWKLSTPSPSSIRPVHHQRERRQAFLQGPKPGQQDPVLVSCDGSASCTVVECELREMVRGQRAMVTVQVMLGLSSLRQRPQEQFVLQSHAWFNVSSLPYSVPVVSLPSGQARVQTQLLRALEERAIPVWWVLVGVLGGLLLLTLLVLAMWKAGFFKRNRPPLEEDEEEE", "T1 sequence (O54890 26-787)": "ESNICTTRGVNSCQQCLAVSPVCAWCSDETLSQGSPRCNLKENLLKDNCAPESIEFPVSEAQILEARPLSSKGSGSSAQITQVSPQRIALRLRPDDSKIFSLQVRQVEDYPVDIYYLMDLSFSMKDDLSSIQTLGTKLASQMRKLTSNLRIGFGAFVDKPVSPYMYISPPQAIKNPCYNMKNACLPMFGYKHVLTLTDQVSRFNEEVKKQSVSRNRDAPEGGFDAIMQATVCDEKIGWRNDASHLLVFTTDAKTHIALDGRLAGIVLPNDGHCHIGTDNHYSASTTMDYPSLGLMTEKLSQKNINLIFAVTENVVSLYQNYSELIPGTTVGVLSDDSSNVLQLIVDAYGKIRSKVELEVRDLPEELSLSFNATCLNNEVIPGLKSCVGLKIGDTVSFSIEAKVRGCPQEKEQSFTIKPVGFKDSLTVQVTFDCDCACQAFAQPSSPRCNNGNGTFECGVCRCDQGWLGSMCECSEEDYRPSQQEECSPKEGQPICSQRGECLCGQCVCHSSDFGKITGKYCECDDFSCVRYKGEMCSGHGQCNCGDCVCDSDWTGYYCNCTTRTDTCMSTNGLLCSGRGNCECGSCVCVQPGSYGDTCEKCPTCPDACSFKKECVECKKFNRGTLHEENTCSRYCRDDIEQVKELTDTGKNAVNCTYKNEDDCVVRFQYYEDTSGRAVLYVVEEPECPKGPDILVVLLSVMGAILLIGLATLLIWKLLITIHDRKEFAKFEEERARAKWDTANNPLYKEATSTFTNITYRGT", "experiment": "Phage binding in irradiated tumors with blocking antibody, plaque formation", "assay_type": "in vivo", "details": "phage encoding the peptide on the capsid protein", "procedure": "An anti-α2bβ3 monoclonal antibody was administered by tail vein to determine whether this receptor is required for recombinant phage binding in irradiated tumors. Phage encoding […] (SEQ ID NO: 2) on the capsid protein were injected immediately after blocking antibody or control antibody. Phage were recovered from the tumor and controls organs and quantified by plaque formation. Radiation induced a 4-fold increase in phage binding in tumor. […] Thus, the tumor binding activity of targeting peptide […] (SEQ ID NO: 2) is dependent on its interaction with the α2bβ3 receptor."}, "GL261 tumors": {"test_system": "GL261 tumors", "experiment": "In vivo panning of T7 phage peptide library: phage recovered from irradiated GL261 tumors", "design": "species or system mice", "details": "Experiment A, 3 Gy", "procedure": "GL261 murine glioma cells and Lewis lung carcinoma (LLC) cells were implanted into the hind limb of C57BL/6 mice (see Hallahan et al., 1995b; Hallahan et al., 1998; Hallahan & Virudachalam, 1999).\nFor in vivo panning, tumors were irradiated with 3 Gy and approximately 10^10 phage (prepared as described in Example 1) were administered by tail vein injection into each of the tumor bearing mice at 4 hours following irradiation. Tumors were recovered at one hour following injection and amplified in BL21 bacteria. Amplified phage were pooled and re-administered to a tumor-bearing mouse following tumor irradiation. The phage pool was sequentially administered to a total of 6 animals. As a control, wild type phage lacking synthetic peptide inserts were identically administered to a second experimental group of animals.\nTo determine the titer of phage binding in a tumor or in normal tissue, recovered phage were amplified in BL21 bacteria. Bacteria were plated and the number of plaques present was counted. To determine the total phage output per organ, the number of plaque forming units (PFU) on each plate was divided by the volume of phage plated and the weight of each organ. Normal variation was observed as a 2-fold difference in PFU. In the present Example, background binding within tumor blood vessels was approximately 10^4 phage. Phage that bound to the vasculature within irradiated tumors show enrichment in the tumor relative to other organs and enrichment in the irradiated tumor relative to the control phage without DNA insert.\nFollowing six rounds of in vivo panning, fifty recombinant phage peptides that bound within irradiated tumors were randomly selected for further analysis. The nucleic acid sequence encoding recombinant phage was amplified by PCR using primers set forth as SEQ ID NOs: 20-21 (available from Novagen Brand, a unit of EMD Biosciences, Inc., Madison, Wis.). An individual phage suspension was used as template. Amplified peptides were sequenced using an ABI PRISM® 377 sequencer (Applied Biosystems of Foster City, Calif., United States of America)."}, "[8]": {"test_system": "B16F0 melanoma, lung carcinoma and glioma tumor models", "experiment": "Binding of phage-encoded peptides in additional tumor models", "assay_type": "in vivo", "details": "phage encoding the peptide", "source_text": "The binding properties of phage encoding HVGGSSV (SEQ ID NO: 1), […] (SEQ ID NO: 2), […] (SEQ ID NO: 3), and SVGSRV (SEQ ID NO: 4) were additionally characterized in a B16F0 melanoma model."}},
  "data": [
    {"compound": "CCN(CC)CCNC(=O)c1c(C)[nH]c(/C=C2\\C(=O)Nc3ccc(F)cc32)c1C", "note": "[SU11248]", "values": [
      {"measurement": "Tumor growth delay", "setting": "D54 tumors", "result": "did not show tumor growth delay"},
      {"measurement": "Time to doubling of LLC tumor size", "setting": "LLC tumors [1]; SU11248 40 mg/kg i.p. 30 minutes before each 3 Gy dose (21 Gy total)", "result": 16, "unit": "days"},
      {"measurement": "Time to doubling of LLC tumor size", "setting": "LLC tumors [1]; SU11248 40 mg/kg i.p. daily, seven administrations, alone", "result": 6, "unit": "days"},
      {"measurement": "Tumor growth delay", "setting": "LLC tumors [2]", "result": "showed a tumor growth delay"},
      {"measurement": "Percentage of endothelial cells with apoptotic nuclei", "setting": "HUVECs [3]; 100 nM SU11248 alone", "result": 7, "unit": "%"},
      {"measurement": "Percentage of endothelial cells with apoptotic nuclei", "setting": "HUVECs [3]; 100 nM SU11248 followed by 6 Gy", "result": 21, "unit": "%"},
      {"measurement": "Vascular length density (VLD) in tumors", "setting": "tumor vasculature; SU11248 40 mg/kg followed by 3 Gy, within 72 hours", "result": "8 % of that at 0 hours"},
      {"measurement": "Vascular length density (VLD) in tumors", "setting": "tumor vasculature; SU11248 alone", "result": "84 % that of 0 hour"},
      {"measurement": "Threshold radiation dose for induction of apoptosis", "setting": "tumor endothelial cells; SU11248 administered prior to irradiation, tumor endothelium", "result": 2, "unit": "Gy"},
      {"measurement": "TUNEL staining of tumor sections", "setting": "tumor endothelial cells; SU11248 alone", "result": "no TUNEL staining"},
      {"measurement": "TUNEL staining of tumor sections", "setting": "tumor endothelial cells; SU11248 followed by 3 Gy, co-localization with vWF", "result": "positive TUNEL staining in endothelial cells"},
      {"measurement": "Anti-tumor activity in mice", "setting": "[4]", "result": "broad and potent anti-tumor activity"},
      {"measurement": "Clonogenic survival", "setting": "HUVECs [5]", "result": "significant reduction in clonogenic survival"}
    ]},
    {"compound": "SLRGDGSSV (Peptide that binds to LLC and/or GL261 tumors) [peptide isolated by in vivo panning]", "values": [
      {"measurement": "Radiolabeled peptide bound in tumors", "setting": "LLC tumors [6]; tumors treated with 2 Gy alone", "result": 10, "unit": "%"},
      {"measurement": "Radiolabeled peptide bound in tumors", "setting": "LLC tumors [6]; tumors treated with 10 Gy", "result": 89, "unit": "%"},
      {"measurement": "Radiolabeled peptide bound in tumors", "setting": "LLC tumors [6]; tumors treated with SU11248 alone", "result": 9, "unit": "%"},
      {"measurement": "Radiolabeled peptide bound in tumors", "setting": "LLC tumors [6]; tumors treated with SU11248 and 2 Gy", "result": 91, "unit": "%"},
      {"measurement": "Radiolabeled peptide bound in tumors", "setting": "LLC tumors [6]; untreated control tumors (tumors about 8% of body weight)", "result": 8, "unit": "%"},
      {"measurement": "Phage Recovered from LLC tumors", "setting": "LLC tumors [7]; Experiment A, number of sequenced phage after six rounds, 3 Gy", "result": 7},
      {"measurement": "Phage Recovered from LLC tumors (Frequency)", "setting": "LLC tumors [7]; Experiment A, six rounds, 3 Gy", "result": "(28%)"},
      {"measurement": "Phage Recovered from LLC tumors (Frequency)", "setting": "LLC tumors [7]; Experiment B", "result": "(14%)"},
      {"measurement": "Phage Recovered from LLC tumors", "setting": "LLC tumors [7]; Experiment B, number of sequenced phage", "result": 2},
      {"measurement": "Radiation-induced increase in phage binding in tumor", "setting": "α2bβ3 receptor", "result": 4, "unit": "fold"},
      {"measurement": "Phage Recovered from GL261 tumors", "setting": "GL261 tumors; number of sequenced phage after six rounds", "result": 2},
      {"measurement": "Phage Recovered from GL261 tumors (Frequency)", "setting": "GL261 tumors; six rounds", "result": "(8%)"},
      {"measurement": "Tumor models within which the phage-encoded peptide bound", "setting": "[8]", "result": "bound within the melanoma, lung carcinoma, and glioma tumor models"}
    ]}
  ]
}
